Entries after “also recorded” stand apart in the source; their conditions may differ.
Molecular target: T1, AtD14 fused to firefly luciferase (D14::LUC) (Arabidopsis thaliana, UniProt Q9SQR3)
T1 construct: a pDONOR207 carrying the D14 promoter fused to the D14 CDS; expressed in transfected cells
T1 sequence (Q9SQR3 1-267): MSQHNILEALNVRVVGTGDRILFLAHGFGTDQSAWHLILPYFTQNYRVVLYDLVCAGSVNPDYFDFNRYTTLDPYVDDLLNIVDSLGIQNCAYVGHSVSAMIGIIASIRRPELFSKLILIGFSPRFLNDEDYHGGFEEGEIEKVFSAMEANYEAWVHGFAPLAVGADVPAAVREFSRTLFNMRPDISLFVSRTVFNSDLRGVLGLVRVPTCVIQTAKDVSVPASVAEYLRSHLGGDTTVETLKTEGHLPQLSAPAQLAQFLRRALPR
Assay: Luminometer-based competition assay between rac-9 and (+)-GR24
Format: in vivo
Conditions: rac-9 constant at 10 μM, (+)-GR24 0.01–100 μM
Protocol: The efficacy values in these samples in terms of luminescence quenching were compared with those of samples receiving (+)-GR24 alone (positive control). […] Luciferase competition test between rac-9 and (+)-GR24. (A) Efficacy values for (+)-GR24 across a range of concentrations, normalized to the value at 1 μM, which was set to 100%. (B) Efficacy values for (+)-GR24 across the same range of concentrations as in (A), but in the presence of rac-9 at 10 μM. Data are means (±SD) of n=5 replicates, where each replicate consisted of at least three pooled individual seedlings and readings.

CC1=CC(C2Cc3c(n(C)c4ccccc34)C2=O)NC1=O (racemic) [rac-9]
Antagonism of (+)-GR24: no antagonistic behaviour; also recorded: did not possess antagonistic activity

— PMC5913603, “Structure–activity relationships of strigolactones via a novel, quantitative in planta bioassay” (Journal of Experimental Botany, 2018)
